Data as given in US20150175599A1, “FAAH Inhibitors” (Ironwood Pharmaceuticals, Inc., priority 2010, published 2015).

Columns and labels:
[1] = Pharmacokinetic study, plasma level 2 hours after oral dosing in rats; assay type: in vivo
Procedure: Pharmacokinetic studies were conducted to determine absorption and distribution profiles of the disclosed compounds which were orally administered to rats.
Compounds were formulated in a 1% DMA/99% Vitamin E TPGS vehicle. Prepared compounds were dosed via oral gavage (PO). Following the appropriate pretreatment time of 2 hours, rats were anesthetized with isoflurane gas. Blood was collected into tubes containing EDTA via retro-orbital eye bleed. Whole blood was spun in a micro-centrifuge at approximately 13,000 rpm for 5 minutes at room temperature. Separated plasma was subsequently aliquoted into eppendorf tubes. Samples were stored at −80° C. until prepped for analysis.
Plasma samples were thawed and the required amount of plasma for standards, blanks and dilutions were made. The dilutions were prepared before plating. Preparation of crash solution included cold acetonitrile+0.1% formic acid and 25 ng/mL of a FAAH inhibitor used as internal standard. solvent standards of the FAAH inhibitor being studied were preparation at 10, 30, 100, 300, 1000, 3000, 10000, 30000, 100000, and 300000 ng/mL in DMSO. Then a plasma standard curve was generated from the solvent standards (final concentrations of standards in plasma were: 0.1, 0.3, 1, 3, 10, 30, 100, 300, 1000, 3000 ng/mL). 50 μL of each plasma sample/dilution, standard, or blank was transferred into 96-well plates. To each well, 200 μL of cold crash solution was added. The plate was covered and gently vortexed. The plate was centrifuged at 3500 rpm, 4° C. for 10 min. 200 μL of each supernatant was transferred into new plates. The plates were dried under nitrogen in a TurboVap at 55° C. The sample in each well was re-suspended with 100 μL of 30% acetonitrile, covered and vortexed gently. The well solutions were analyzed by the LC/MS/MS conditions and specifications below.
HPLC column was a Clipeus C8, 2.1×30 mm, 5 μm, with Basic 8 guard column using 20 μL injections. Mobile phase used was mobile phase A: 0.1% Formic Acid in water and mobile phase B: 0.1% Formic Acid in 85:10:5 ACN:IPA:H2O. The flow rate for the run was 0.5 mL/min and the gradient for the 4 minute total run time was: 0.0 minutes

human FAAH-1 = biological target: T1, human FAAH-1 (Homo sapiens, UniProt O00519); assay: Whole cell anandamide hydrolysis assay (HeLa clone 5c5 transfected with human FAAH-1); assay type: cell-based; settings: HeLa clone 5c5 expressing human FAAH-1; read-out: human FAAH whole cell IC50
T1 sequence (O00519 1-579): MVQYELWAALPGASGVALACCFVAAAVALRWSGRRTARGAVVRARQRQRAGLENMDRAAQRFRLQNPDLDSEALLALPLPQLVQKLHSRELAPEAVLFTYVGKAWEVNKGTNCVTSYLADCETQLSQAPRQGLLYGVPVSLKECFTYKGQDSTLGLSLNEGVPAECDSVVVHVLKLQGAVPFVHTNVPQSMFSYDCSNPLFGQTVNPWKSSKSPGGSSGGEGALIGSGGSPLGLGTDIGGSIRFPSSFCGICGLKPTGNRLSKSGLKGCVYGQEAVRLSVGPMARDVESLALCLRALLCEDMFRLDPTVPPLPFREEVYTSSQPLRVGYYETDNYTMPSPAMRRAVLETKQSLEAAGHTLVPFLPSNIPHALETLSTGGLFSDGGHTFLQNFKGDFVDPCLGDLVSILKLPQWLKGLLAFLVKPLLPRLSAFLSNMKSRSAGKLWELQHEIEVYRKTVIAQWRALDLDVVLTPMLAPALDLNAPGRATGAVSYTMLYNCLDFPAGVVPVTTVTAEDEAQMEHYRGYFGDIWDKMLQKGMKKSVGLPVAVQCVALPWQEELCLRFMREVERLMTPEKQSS
Procedure: FAAH activity was assayed in whole cells using methods disclosed previously (Maccarone et al., 1998 J Biol. Chem. 273:32332 and Bisogno et al., 1997 J Biol. Chem. 272:3315). In addition to the cell lines described in Maccarone et al. and Bisogno et al., MCF7 (ATCC designation HTB-22) and T84 (ATCC designation CCL-248) cell lines were also used in these assays.
cDNA expression clone for human FAAH-1 (in pcDNA3 vector) (Genbank Accession U82535; obtained from Benjamin Cravatt, Scripps Research Institute, La Jolla, Calif.) was linearized by digestion with BglII (New England Biolabs) and transfected by calcium phosphate into human HeLa cells (ATCC catalog #CCL-2). […] Following transfection, a stable HeLa-derived clone, designated 5c5, was isolated by single colony purification and expanded and maintained in modified Eagles medium (MEM; VWR catalog #45000-300) containing 10% fetal bovine serum (FBS), 2 mM L-glutamine, and 0.5 mg/mL G-418 (Sigma catalog #G5013).
Clone 5c5 (50,000 cells in 150 μL) was seeded into 96-well plates and incubated overnight (5% CO2, 37° C.). Media was carefully replaced with 180 μL DMEM/F12 medium (VWR catalog #45000-350) containing 15 mM HEPES, pH 7.4 and 0.1% fatty acid free BSA (Sigma catalog #A0281). Then, 2 μL of 100× desired final concentrations of certain exemplary compounds described herein were made up in DMSO, added to wells containing cells, and plates were incubated at 37° C. for 10 min. Next, 20 μL of 5 μM anandamide (Cayman catalog #90050) spiked with 8 μCi of anandamide-(ethanolamine-1-[^3H]) (American Radiolabeled Chemicals, Inc., catalog #ART 626) was added to the cells and the plates were incubated for an additional 15 min at 37° C. The reactions were terminated by chilling the plates on ice and adding 20 μL of 0.5M of potassium phosphate buffer (adjusted to pH 2.1 with phosphoric acid).
The acidified reactions were transferred to 96-well filter plates (0.25 mL capacity/well, 1.2 micron glass fiber pre-filter packed above 0.65 micron pore-size PVDF membrane, Millipore catalog MSFCN6B50) containing 25 μL charcoal (neutral activated carbon, Fisher Scientific catalog C170-500) per well. Prior to the assay, charcoal was measured and loaded onto the plate using an aluminum 96-well column loading device (Millipore catalog MACL09625). The filter plate was assembled over an empty 96-well plate (Costar) using a centrifuge alignment frame (Millipore catalog MACF09604) to allow for collection of the filtrate in the receiver plate. The charcoal glass-fiber filter plates were pre-washed with methanol by centrifugation 650×g for 10 min). Next, 80 μL of water was added to the wells of the pre-washed 96 well charcoal filter plate. Then, 90 μL of the acidified reaction mixture was added to the water in the wells of the charcoal plate. The samples were centrifuged as above. The substrate remained bound to the charcoal, whereas the [^3H]-ethanolamine product formed flowed through and was transferred to the microplates containing scintillation cocktail and quantified in a micro-plate scintillation counter (Perkin-Elmer Microbeta). Control reactions with either no cells or cells treated with DMSO alone were performed in triplicate and used to define background (no cells) and 100% activity (DMSO alone).
Following subtraction of background radioactivity, data were expressed as percent inhibition relative to 100% activity and fit with a nonlinear regression curve using GraphPad Prism Software (GraphPad Software Inc). IC50 values were calculated from the resulting dose-response curves constrained at top and bottom to 100% and 0%, respectively.

Row | SMILES | 2 hr plasma level-ng/mL (rat, 10 mg/kg PO, 2 hr) [1] | IC50 (human FAAH-1)
1 | COc1cc(NC(=O)C(=O)c2c(C)n(Cc3ccc(Cl)cc3)c3ccc(OC(C)=O)cc23)ccn1 [Compound 1, 1-(4-chlorobenzyl)-3-(2-(2-methoxypyridin-4-ylamino)-2-oxoacetyl)-2-methyl-1H-indol-5-yl acetate] | A (A = Less than 10 nM) | < 100 nM
2 | COc1cc(NC(=O)C(=O)c2c(C)n(Cc3ccc(Cl)cc3)c3ccc(O)cc23)ccn1 [Compound 2, 2-(1-(4-chlorobenzyl)-5-hydroxy-2-methyl-1H-indol-3-yl)-N-(2-methoxypyridin-4-yl)-2-oxoacetamide] | A (A = Less than 10 nM) | < 100 nM
3 | COc1cc(NC(=O)C(=O)c2c(C)n(Cc3ccc(Cl)cc3)c3ccc(C(C)=O)cc23)ccn1 [Compound 5, 2-(5-acetyl-1-(4-chlorobenzyl)-2-methyl-1H-indol-3-yl)-N-(2-methoxypyridin-4-yl)-2-oxoacetamide] | C (C = between 100 nM and 1000 nM) | < 100 nM
4 | COc1cc(NC(=O)C(=O)c2c(C)n(Cc3ccc(Cl)cc3)c3ccc(CO)cc23)ccn1 [Compound 8, 2-(1-(4-chlorobenzyl)-5-(hydroxymethyl)-2-methyl-1H-indol-3-yl)-N-(2-methoxypyridin-4-yl)-2-oxoacetamide] | C (C = between 100 nM and 1000 nM) | < 100 nM
5 | CNc1ccc2c(c1)c(C(=O)C(=O)Nc1ccnc(OC)c1)c(C)n2Cc1ccc(Cl)cc1 [Compound 9, 2-(1-(4-chlorobenzyl)-2-methyl-5-(methylamino)-1H-indol-3-yl)-N-(2-methoxypyridin-4-yl)-2-oxoacetamide] | C (C = between 100 nM and 1000 nM) | < 100 nM
6 | COc1cc(NC(=O)C(=O)c2c(C)n(Cc3ccc(Cl)cc3)c3ccc(COC(C)=O)cc23)ccn1 [Compound 10, (1-(4-chlorobenzyl)-3-(2-(2-methoxypyridin-4-ylamino)-2-oxoacetyl)-2-methyl-1H-indol-5-yl)methyl acetate] | C (C = between 100 nM and 1000 nM) | < 100 nM
7 | COCc1ccc2c(c1)c(C(=O)C(=O)Nc1ccnc(OC)c1)c(C)n2Cc1ccc(Cl)cc1 [Compound 11, 2-(1-(4-chlorobenzyl)-5-(methoxymethyl)-2-methyl-1H-indol-3-yl)-N-(2-methoxypyridin-4-yl)-2-oxoacetamide] | C (C = between 100 nM and 1000 nM) | < 100 nM
8 | COc1ccc2c(c1)c(C(=O)C(=O)Nc1ccnc(OC)c1)c(C)n2Cc1cnc(Cl)cn1 [Compound 12, 2-(1-((5-chloropyrazin-2-yl)methyl)-5-methoxy-2-methyl-1H-indol-3-yl)-N-(2-methoxypyridin-4-yl)-2-oxoacetamide] | C (C = between 100 nM and 1000 nM) | < 100 nM
9 | COc1cc(NC(=O)C(=O)c2c(C)n(Cc3ncc(Cl)cc3Cl)c3cc(F)c(OC)cc23)ccn1 [Compound 13, 2-(1-((3,5-dichloropyridin-2-yl)methyl)-6-fluoro-5-methoxy-2-methyl-1H-indol-3-yl)-N-(2-methoxypyridin-4-yl)-2-oxoacetamide] | C (C = between 100 nM and 1000 nM) | < 100 nM
10 | COc1cc(NC(=O)C(=O)c2c(C)n(Cc3ccc(F)cc3F)c3cc(F)c(OC)cc23)ccn1 [Compound 14, 2-(1-(2,4-difluorobenzyl)-6-fluoro-5-methoxy-2-methyl-1H-indol-3-yl)-N-(2-methoxypyridin-4-yl)-2-oxoacetamide] | D (D = greater than 1000 nM) | < 100 nM
11 | COc1cc(NC(=O)C(=O)c2c(C)n(Cc3ccc(Cl)cc3)c3ccc(C#N)cc23)ccn1 [Compound 15, 2-(1-(4-chlorobenzyl)-5-cyano-2-methyl-1H-indol-3-yl)-N-(2-methoxypyridin-4-yl)-2-oxoacetamide] | D (D = greater than 1000 nM) | < 100 nM
12 | COc1cc(NC(=O)C(=O)c2c(C)n(Cc3ccc(Cl)cc3)c3ccc(N(C)C)cc23)ccn1 [Compound 17, 2-(1-(4-chlorobenzyl)-5-(dimethylamino)-2-methyl-1H-indol-3-yl)-N-(2-methoxypyridin-4-yl)-2-oxoacetamide] | C (C = between 100 nM and 1000 nM) | < 100 nM
13 | COc1cc(NC(=O)C(=O)c2c(C)n(Cc3ccc(Cl)cc3)c3ccc(Br)cc23)ccn1 [Compound 18, 2-(5-bromo-1-(4-chlorobenzyl)-2-methyl-1H-indol-3-yl)-N-(2-methoxypyridin-4-yl)-2-oxoacetamide] | D (D = greater than 1000 nM) | < 100 nM
14 | COc1cc(NC(=O)C(=O)c2c(C)n(Cc3ccc(Cl)cc3)c3ccc([N+](=O)[O-])cc23)ccn1 [Compound 19, 2-(1-(4-chlorobenzyl)-2-methyl-5-nitro-1H-indol-3-yl)-N-(2-methoxypyridin-4-yl)-2-oxoacetamide] | C (C = between 100 nM and 1000 nM) | < 100 nM
15 | COc1cc(NC(=O)C(=O)c2c(C)n(Cc3ccc(Cl)cc3)c3ccc(N)cc23)ccn1 [Compound 20, 2-(5-amino-1-(4-chlorobenzyl)-2-methyl-1H-indol-3-yl)-N-(2-methoxypyridin-4-yl)-2-oxoacetamide] | C (C = between 100 nM and 1000 nM) | < 100 nM
